Tests used:
Format in all cases: functional, organism-based
Stromatinia cepivora = assay: Antifungal activity against Sclerotium cepivorum after 4 days
Sclerotinia sclerotiorum = assay: Antifungal activity against Sclerotinia sclerotiorum after 4 days
[1] = system: Fusarium oxysporum f. sp. dianthi; assay: Antifungal activity against Fusarium oxysporum f. sp. dianthi after 4 days

EC50 (Stromatinia cepivora) [uL/L] | EC50 (Sclerotinia sclerotiorum) [uL/L] | EC50 [1] [uL/L] | Compound
563.94 | 146.15 | 661.76 | C=CC(C)(O)CCC=C(C)C (stereo unspecified) [LINALOOL]
> 1500 | 549.62 | > 1500 | C=CC(C)(CCC=C(C)C)OC(C)=O (stereo unspecified) [LINALYL ACETATE]

From ChEMBL document CHEMBL3044842, “Composition and antifungal activity on soil-borne pathogens of the essential oil of Salvia sclarea from Greece” (J Agric Food Chem, 2002)
